Columns and labels:
linearized pUC19 DNA = test: DNA cross-linking assay with linearized pUC19 DNA, denaturing agarose gel electrophoresis; format: biochemical; details: linearized pUC19 DNA, pH 7.0, 1 nM-100 μM
Experimental: FIGS. 6A-6C depict the DNA crosslinking ability of several compounds according to some embodiments. The DNA cross-linking assays employ linear pUC19 DNA. DMSO was used as vehicle (negative control), and 100 μM cisplatin was used as positive controls. The DNA was analyzed by 0.4% NaOH denaturing and agarose gel electrophoresis (90 V, 1.5 h). FIG. 6A depicts the DNA cross-linking comparison of colibactin 770 (3a), stable colibactin 742 (4), and its linear precursor 9 at pH 5.0. FIG. 6B depicts the comparison of the relative DNA cross-linking abilities of colibactin 742 (4) and its linear precursor 9 at pH 5.0. FIG. 6C depicts the comparison of the relative DNA cross-linking abilities of colibactin 742 (4) and its linear precursor 9 at pH 7.0.
FIG. 10 depicts the DNA cross-linking assay employing linear pUC19 DNA and synthetic colibactin (3), 9, and colibactin 742 (4) according to some embodiments. Specifically, 5% DMSO was used as vehicle (negative control), and 100 μM cisplatin was used as positive control. DNA ladder (Lane #1); 5% DMSO (Lane #2); 100 μM cisplatin (Lane #3); 200 μM colibactin (3) (Lane #4); 100 μM colibactin (3) (Lane #5); 10 μM colibactin (3) (Lane #6); 1 μM colibactin (3) (Lane #7); 200 μM 9 (Lane #8); 100 μM 9 (Lane #9); 10 μM 9 (Lane #10); 1 μM 9 (Lane #11); 200 μM colibactin 742 (4) (Lane #12); 100 μM colibactin 742 (4) (Lane #13); 10 μM colibactin 742 (4) (Lane #14); 1 μM colibactin 742 (4) (Lane #15). Conditions (Lane #3): linearized pUC19 DNA (15.4 μM in base pairs), 5% DMSO (vehicle), 100 μM cisplatin, 10 mM citric buffer, pH 5.0, 4 h, 37° C. Conditions (Lanes #4-#7): linearized pUC19 DNA (15.4 μM in base pairs), colibactin (3) (200 μM-1 μM), 5% DMSO, 10 mM citric buffer, pH 5.0, 4 h, 37° C. Conditions (Lanes #8-#11): linearized pUC19 DNA (15.4 μM in base pairs), 9 (200 μM-1 μM), 5% DMSO, 10 mM citric buffer, pH 5.0, 4 h, 37° C. Conditions (Lanes #12-#15): linearized pUC19 DNA (15.4 μM in base pairs), colibactin 742 (4) (200 μM-1 μM), 5% DMSO, 10 mM citric buffer, pH 5.0, 4 h, 37° C. The DNA was analyzed by native, 0.2% NaOH, 0.4% NaOH, and 1% NaOH denaturing agarose gel electrophoresis (90 V, 1.5 h). Linear=linearized DNA in native form, linear-denat.=linearized DNA in denaturing form, linear-XL=linerized DNA cross-linked by colibactins or cisplatin.
FIG. 11 depicts the DNA cross-linking assay employing linear pUC19 DNA and synthetic colibactin fragments 23, 24, and 22. Specifically, 5% DMSO was used as vehicle (negative control), and 100 μM cisplatin was used as positive control. DNA ladder (Lane #1); 5% DMSO (Lane #2); 100 μM cisplatin (Lane #3); 500 μM 23 (Lane #4); 100 μM 23 (Lane #5); 10 μM 23 (Lane #6); 1 μM 23 (Lane #7); 100 nm 23 (Lane #8); 500 μM 24 (Lane #9); 100 μM 24 (Lane #10); 10 μM 24 (Lane #11); 1 μM 24 (Lane #12); 100 nm 24 (Lane #13); 500 μM 22 (Lane #14); 100 μM 22 (Lane #15); 10 μM 22 (Lane #16); 1 μM 22 (Lane #17); 100 nm 22 (Lane #18). Conditions (Lane #2): linearized pUC19 DNA (15.4 μM in base pairs), 5% DMSO (vehicle), 10 mM citric buffer, pH 5.0, 4 h, 37° C. Conditions (Lane #3): linearized pUC19 DNA (15.4 μM in base pairs), 5% DMSO (vehicle), 100 μM cisplatin, 10 mM citric buffer, pH 5.0, 4 h, 37° C. Conditions (Lanes #4-#8): linearized pUC19 DNA (15.4 μM in base pairs), 23 (500 μM-100 nM), 5% DMSO, 10 mM citric buffer, pH 5.0, 4 h, 37° C. Conditions (Lanes #9-#13): linearized pUC19 DNA (15.4 μM in base pairs), 24 (500 μM-1 μM), 5% DMSO, 10 mM citric buffer, pH 5.0, 4 h, 37° C. Conditions (Lanes #14-#18): linearized pUC19 DNA (15.4 μM in base pairs), 22 (500 μM-100 nM), 5% DMSO, 10 mM citric buffer, pH 5.0, 4 h, 37° C. The DNA was analyzed by native, 0.2% NaOH, 0.4% NaOH, and 1% NaOH denaturing agarose gel electrophoresis (90 V, 1.5 h). Linear=linearized DNA in native form, linear-denat.=linearized DNA in denaturing form, linear-XL=DSB/linerized DNA cross-linked by colibactins or cisplatin. […]

eukaryotic cells = test: Genotoxicity of synthetic colibactin 770 in eukaryotic cells; format: cell-based; details: eukaryotic cells treated with the synthetic compound
[1] = Stability of colibactin 770 in aqueous buffer (LC-MS time course); format: physicochemical
Experimental: FIG. 9 depicts the percentage of colibactin 770 (M+Na) over time at pH 7.4, 37° C. according to some embodiments. Specifically, the linear precursor to colibactin 770 (nominally 404 nmol), prepared according to Xu et al. (Science 2019, 365) was dissolved in DMSO (100 μL) and the resulting solution was diluted with PBS buffer (400 μL) at 22° C. This solution was immediately warmed to 37° C. in a preheated water bath. Aliquots (15 μL) were taken at 0 min, 5 min, 10 min, 15 min, 30 min, 60 min, 120 min, 180 min, 240 min, 300 min, and 480 min. Each aliquot was dissolved in acetonitrile (150 μL) and then immediately frozen in liquid nitrogen. The frozen aliquots were stored at −78° C. until the time course was complete. Aliquots were quickly thawed and analyzed using a Shimadzu Scientific Instruments QToF 9030 LC-MS system, equipped with a Nexera LC-40D xs UHPLC, consisting of a CBM-40 Lite system controller, a DGU-405 Degasser Unit, two LC-40D XS UHPLC pumps, a SIL-40C XS autosampler and a Column Oven CTO-40S. UV data was collected with a Shimadzu Nexera HPLC/UHPLC Photodiode Array Detector SPD M-40 in the range of 190-800 nm. Mass spectra were recorded with the quadrupole time-of-flight (QToF) 9030 mass spectrometer. The samples were held at 4° C. in the autosampler compartment. […]

For `C[C@H]1CCC(C2=C(CC(=O)NCC(=O)c3csc(C(=O)C(=O)c4csc(CNC(=O)CC5=C(C6=N[C@@H](C)CC6)C(=O)NC56CC6)n4)n3)C3(CC3)NC2=O)=N1` [colibactin 770 (3a)], the “DNA interstrand cross-link (ICL) formation” value (linearized pUC19 DNA) was “fails to produce detectable levels of ICLs”, the genotoxicity (eukaryotic cells) was “no genotoxicity was observed” and the “stability at pH 7.0” value ([1]; pH 7.0) was “readily decomposes”. The “time to degradation in aqueous buffer” value ([1]; pH 7.4, 37° C.) was ≤ 2 h.
